Assay results reported in patent US12616697B2, “Methods of treatment with myosin modulator” (MyoKardia, Inc., priority 2020, dated 2026).

What was measured:
[1] = target: T1, bovine cardiac synthetic myosin filaments (Bos taurus, UniProt Q9BE39); assay: DRX/SRX ATPase rate and SRX population in cardiac synthetic myosin filaments; format: biochemical; conditions: over a range of concentrations; the two compounds compared
T1 construct: bovine cardiac synthetic myosin filaments; from tissue; host or cells: bovine heart (inferred from 'bovine cardiac'; the preparation is not described)
T1 sequence (Q9BE39 whole entry): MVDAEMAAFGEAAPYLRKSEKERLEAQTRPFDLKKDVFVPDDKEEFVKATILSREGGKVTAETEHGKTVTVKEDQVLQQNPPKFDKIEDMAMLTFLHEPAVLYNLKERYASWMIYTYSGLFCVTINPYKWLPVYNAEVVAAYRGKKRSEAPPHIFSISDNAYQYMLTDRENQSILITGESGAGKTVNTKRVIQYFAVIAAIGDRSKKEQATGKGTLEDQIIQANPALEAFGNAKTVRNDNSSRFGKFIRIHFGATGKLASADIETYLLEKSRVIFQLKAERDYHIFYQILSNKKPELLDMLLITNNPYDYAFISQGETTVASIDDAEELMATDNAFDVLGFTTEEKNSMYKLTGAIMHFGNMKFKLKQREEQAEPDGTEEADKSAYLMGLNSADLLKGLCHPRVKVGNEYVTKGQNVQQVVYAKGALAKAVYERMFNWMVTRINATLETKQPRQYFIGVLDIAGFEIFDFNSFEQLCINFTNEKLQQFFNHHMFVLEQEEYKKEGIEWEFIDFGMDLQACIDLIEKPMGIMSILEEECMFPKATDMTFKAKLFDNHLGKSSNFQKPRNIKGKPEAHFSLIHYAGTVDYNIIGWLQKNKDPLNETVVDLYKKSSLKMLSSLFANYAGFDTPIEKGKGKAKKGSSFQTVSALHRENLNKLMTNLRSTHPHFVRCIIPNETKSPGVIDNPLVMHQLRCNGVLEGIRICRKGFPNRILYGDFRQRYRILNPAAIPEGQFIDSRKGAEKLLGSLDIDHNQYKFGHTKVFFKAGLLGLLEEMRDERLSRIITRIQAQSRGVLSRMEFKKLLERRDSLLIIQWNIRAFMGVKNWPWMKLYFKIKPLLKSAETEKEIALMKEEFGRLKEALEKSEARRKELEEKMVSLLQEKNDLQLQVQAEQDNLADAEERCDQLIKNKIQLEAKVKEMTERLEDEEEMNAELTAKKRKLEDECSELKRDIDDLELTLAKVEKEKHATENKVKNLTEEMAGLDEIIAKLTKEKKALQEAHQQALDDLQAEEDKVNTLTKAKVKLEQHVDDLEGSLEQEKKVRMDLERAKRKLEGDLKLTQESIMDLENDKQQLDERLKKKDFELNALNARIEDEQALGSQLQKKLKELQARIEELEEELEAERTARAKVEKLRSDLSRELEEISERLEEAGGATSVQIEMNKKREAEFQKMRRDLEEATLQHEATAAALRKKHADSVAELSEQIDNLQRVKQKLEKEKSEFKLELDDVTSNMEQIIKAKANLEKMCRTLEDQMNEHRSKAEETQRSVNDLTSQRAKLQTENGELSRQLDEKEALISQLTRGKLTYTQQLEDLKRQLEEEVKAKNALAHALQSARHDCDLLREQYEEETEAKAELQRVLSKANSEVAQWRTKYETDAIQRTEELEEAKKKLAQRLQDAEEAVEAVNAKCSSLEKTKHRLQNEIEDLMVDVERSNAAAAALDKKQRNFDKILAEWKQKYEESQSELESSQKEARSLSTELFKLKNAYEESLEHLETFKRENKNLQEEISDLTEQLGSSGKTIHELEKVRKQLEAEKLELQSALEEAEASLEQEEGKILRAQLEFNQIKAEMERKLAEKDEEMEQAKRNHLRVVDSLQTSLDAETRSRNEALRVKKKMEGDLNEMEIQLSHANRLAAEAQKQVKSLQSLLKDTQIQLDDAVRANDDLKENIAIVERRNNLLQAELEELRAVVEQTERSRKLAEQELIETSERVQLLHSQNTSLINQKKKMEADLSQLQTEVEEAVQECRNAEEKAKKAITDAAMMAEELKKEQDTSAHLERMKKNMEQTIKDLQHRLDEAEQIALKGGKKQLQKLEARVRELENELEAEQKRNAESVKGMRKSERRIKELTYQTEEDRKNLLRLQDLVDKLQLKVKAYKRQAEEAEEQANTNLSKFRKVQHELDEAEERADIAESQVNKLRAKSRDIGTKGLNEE
T1 sequence (P85100 whole entry partner): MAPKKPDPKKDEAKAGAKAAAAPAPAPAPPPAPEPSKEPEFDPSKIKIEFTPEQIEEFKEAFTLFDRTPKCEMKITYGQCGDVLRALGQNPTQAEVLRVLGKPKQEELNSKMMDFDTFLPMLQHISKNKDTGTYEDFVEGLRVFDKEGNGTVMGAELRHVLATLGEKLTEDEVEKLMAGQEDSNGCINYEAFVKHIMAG
T1 sequence (Q3SZE5 whole entry partner): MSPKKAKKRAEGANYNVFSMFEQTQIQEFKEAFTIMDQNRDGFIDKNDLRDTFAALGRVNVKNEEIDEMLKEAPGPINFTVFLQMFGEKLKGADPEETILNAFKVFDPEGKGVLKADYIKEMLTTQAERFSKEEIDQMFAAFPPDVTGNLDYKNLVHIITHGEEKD

[2] = system: Yucatan mini-pigs with a heterozygous MYH7 R403Q mutation; assay: Chronic MYK-581 in mini-pig genetic model of non-obstructed HCM (cMR imaging, invasive hemodynamics, dobutamine challenge); format: in vivo
Method: The mini-pigs were treated for at least 12 weeks and were evaluated as shown in Schematic 1 below. […] After ˜14 weeks of treatment, all pigs underwent in vivo cMR imaging for the assessment of LV function and geometry, as well as of myocardial composition via of Late Gadolinium Enhancement (LGE) and T1 mapping techniques including extracellular volume (ECV) assessments. In addition, a subset of animals (MYK: n=6, CTRL: n=5) also underwent terminal invasive hemodynamics assessments, including cardiac output (CO, via thermodilution), load-independent systolic/diastolic function (via LV pressure-volume relationships), and β-adrenergic (β-AR) cardiac reserve (via dobutamine at 5 ug/kg/min IV).
The mini-pig model can be obtained following the method disclosed in a presentation entitled “A Minipig Genetic Model of Hypertrophic Cardiomyopathy Uncovers the Pathophysiological Mechanisms of Disease Evolution”, by E. Green et al., at University of Iowa, Carver College of Medicine.

anaesthetized rats = assay: Counteraction of mavacamten effects in anaesthetized rats in vivo; design: species or system rat
Text: (§1) Additional supportive measures, e.g., intravenous volume supplementation and/or the use of arterial vasoconstrictor agents (a adrenergic agonists) may complement the use of a β adrenergic agonist.

[3] = system: conscious fully-instrumented dogs with normal cardiac function; assay: Cardiac reserve under acute β-AR (dobutamine) challenges in conscious instrumented dogs; format: in vivo, dog; conditions: before and under acute mavacamten treatment
Method: In addition, the effects of MAVA (at 1.5 mg/kg PO, via gavage) on cardiac reserve were evaluated via acute β-AR challenges (dobutamime: 2, 5, and 10 ug/kg/min IV) in conscious fully-instrumented (LVPV group) dogs with normal cardiac function (n=8). These challenges were performed before/after dosing (+3-hour) in control- and MAVA-treated animals both under normal cardiac physiological conditions (n=4) and under (mild) concomitant cardio-depression induced via either selective β-AR blockade (+BB, metoprolol 0.5±0.1 mg/kg PO tid; n=4) or L-type Ca2+-channel blockade (+CCB, verapamil at 5±1 mg/kg PO tid; n=4); pharmacological blockades were established for 7 days prior to the MAVA treatment. Both peak and dose-responses were evaluated at steady state.
Throughout these experiments, analog signals were digitally acquired (1000 Hz) and recorded continuously with a data acquisition/analysis system (IOX; EMKA Technologies). Heart rate (HR), end-systolic (ESP) and end-diastolic pressures (EDP), as well as the peak rates of pressure rise/decline (dP/dtmax and dP/dtmin), the contractility index (CI: dP/dt/P at dP/dtmax), and the time-constant of myocardial relaxation (tau1/2, time for 50% decay from dP/dtmin) were derived from the LV pressure signal. Meanwhile, the end-systolic (ESV) and end-diastolic volumes (EDV) were measured from the LV volume signal derived from the implanted myocardial crystals. LV volumes were derived assuming a Teichholz model, and stroke volume (SV=EDV−ESV), ejection fraction (EF=SV/EDV), as well as cardiac output (CO=SV·HR) were calculated; in a subset of animals, SV and CO values were verified from data derived from the implanted aortic flow […]. […] The slopes of the preload-recruitable stroke work (PRSW; stroke work vs. EDV) and the end-systolic pressure-volume relationships (ESPVR; end-systolic elastance, Ees) were derived by software using linear models (IOX; EMKA Technologies), and were used as load-independent inotropic indices. Ventricular load was estimated by the effective arterial elastance (Ea=ESP/SV). […]

[4] = system: conscious Sprague-Dawley rats; assay: Mavacamten-induced cardio-depression with positive inotropic challenges, echocardiography; format: in vivo, rat; conditions: inotropic challenge 3 hrs after MAVA 4 mg/kg PO
Method: Methods: The responsiveness of mavacamten-induced cardio-depression to positive inotropic challenges was assessed in a set of conscious Sprague-Dawley rats. In these animals, functional reserve was assessed via either dobutamine (+DOB, 10 ug/kg/min IV for 10 min, n=7) or levosimendan (+LEVO, 0.3 μmol/kg IV over […]; n=6) challenges given 3 hrs following a single-dose administration of MAVA (at 4 mg/kg, PO). Cardiac function/geometry were recorded and compared at three separate time-points/days: prior to dosing (i.e., at baseline) and at 3 hrs post-dosing both before as well as during the inotropic challenge; in order to account for the levosimendan-induced changes in loading conditions, an additional echocardiographic examination was performed following acute preload-restoration in LEVO-treated rats (+LEVO/F, 0.9% NaCl at 30 mL/kg/hr IV).
In these experiments, left-ventricular fractional shortening (FS), an index of systolic performance, as well as LV dimensions/volumes and heart rates were measured using a high-frequency transducer and parasternal long-axis transthoracic views (Vevo2100, VisualSonic). FS was defined as the end-diastole normalized change in internal dimensions/diameter of the left ventricle between end-systole (LVESd) and end-diastole (LVEDd) (i.e., FS=100·[LVEDd−LVESd]/LVEDd). LV volumes were derived assuming a Teichholz model (LVV=7·[2.4+LVid]−1·LVid3).

[5] = system: isolated adult rat ventricular myocytes; assay: Counteraction of mavacamten effects in isolated myocytes in vitro; format: cell-based
Text: as §1

**Q.** How did the “DRX ATPase rate and SRX ATPase Rate (as a fraction of control)” value [1] turn out when `CC(C)n1c(=O)cc(N[C@@H](C)c2cccc(F)c2)[nH]c1=O` [MYK-581, (S)-6-((1-(3-fluorophenyl)ethyl)amino)-3-isopropylpyrimidine-2,4(1H,3H)-dione] was run?
**A.** similar

**Q.** And the “CO (cardiac output)” value ([2]; chronic treatment)?
**A.** preserving CO

**Q.** What about the “CO change, β-AR cardiac reserve” value ([2]; dobutamine challenge, control +26±2) of the same molecule?
**A.** +60±8%

**Q.** And the T1-times ([2]; vs control)?
**A.** lower T1-times

**Q.** Which “pharmacologic effects of mavacamten counteracted” value (anaesthetized rats) does the source give for `CC(CCc1ccc(O)cc1)NCCc1ccc(O)c(O)c1` (stereo not drawn) [dobutamine] here?
**A.** can be counteracted

**Q.** What about the stroke-volume/cardiac output recruitments [3] of the same molecule?
**A.** comparable stroke-volume/cardiac output recruitments

**Q.** What about the “echocardiography-derived indices of systolic function after mavacamten” value [4] of the same molecule?
**A.** successfully rescued/restored

**Q.** Which “pharmacologic effects of mavacamten counteracted” value [5] does the source give for `CC(C)NCC(O)c1ccc(O)c(O)c1` (stereo not drawn) [isoproterenol] here?
**A.** can be counteracted

**Q.** `C[C@@H]1CC(=O)NN=C1c1ccc(NN=C(C#N)C#N)cc1` [levosimendan] was tested. Which “echocardiography-derived indices of systolic function after mavacamten” value [4] did it give?
**A.** successfully rescued/restored
